Results reported in publication PMC6568410, “A scorpion venom peptide derivative BmKn‒22 with potent antibiofilm activity against Pseudomonas aeruginosa” (PLoS ONE, 2019).
Where no end group is shown, it is not given here.

Assays:
[1] = system: P. aeruginosa PAO1 biofilm formation; experiment: Biofilm formation assay, crystal violet staining; format: cell-based, Pseudomonas aeruginosa; details: for reduction of P. aeruginosa biofilms: 24 h, compared with untreated control, result in words
Procedure: (§1) The effect of BmKn‒2 peptide and derivatives on biofilm formation of P. aeruginosa PAO1 was determined according to the method published previously with some modifications. Briefly, 100 μL of the test peptides was plated into the wells of flat-bottomed 96-well microtiter plates (Nunc™, Roskilde, Denmark) at the final concentrations of 200 ‒ 800 μM. Aliquots of the P. aeruginosa PAO1 suspension were then inoculated to the wells of 96-well microtiter plates to obtain a final concentration of 10^6 CFU/mL. Culture without the test peptides was used as the untreated control. After incubation at 37 ^OC for 24 h without agitation, planktonic cells were removed and the plates were gently rinsed twice with phosphate buffered saline (PBS) pH 7.4. Biofilms were then stained with 0.1% crystal violet solution (Merck, Darmstadt, Germany) for 10 minutes at room temperature. Excess stains were rinsed off with PBS pH 7.4 and the plates were left dry at 37 ^OC for 2 h. Subsequently, biofilm biomass was solubilized with 30% acetic acid and the optical density (OD) measured at 550 nm using a microplate reader (BioTek Synergy HT).

[2] = system: L929 mouse fibroblast cells; experiment: Cytotoxicity, MTT assay; format: cell-based; details: 800 µM, 24 h; for effect on viability of L929 cells: compared with untreated control, result in words; for Cell viability (%): L929 cells
Procedure: The toxicity of the test peptides against L929 mouse fibroblast cells was assessed by 3-(4,5-dimethylthiazol-2-yl)-2,5-diphenyltetrazolium bromide (MTT) assay. L929 mouse fibroblast cells from American Type Culture Collection (ATCC, Manassas, VA, USA) were cultured in Dulbecco's Modified Eagle Medium (DMEM; HyClone, Utah, USA) supplemented with 10% fetal bovine serum (Gibco, South America), 10 mM 4-(2-hydroxyethyl)-1 piperazineethanesulfonic acid (HEPES; HyClone, Utah, USA), 2 mM L-glutamine (Gibco, Brazil) and 100 U/mL penicillin and 100 μg/ml streptomycin (Gibco, USA) in a 5% CO2 atmosphere at 37°C. L929 cells (2×10^4 cells/well) were seeded in 96-well plates (Nunc) and incubated overnight. The culture medium was discarded and replaced by 100 μL of fresh DMEM containing the test compounds (final concentration 800 μM). Cells without the test compounds served as untreated control. After 24 h incubation, 20 μL of MTT solution (5 mg/mL; Sigma, St. Louis, MO, USA) was added and incubated for 3 h. The culture supernatant was removed and 100 μL dimethyl sulfoxide was added to each well to dissolve the formazan crystals. The absorbance was measured at 540 nm on a microplate reader (BioTek Synergy HT). Percentage of cell viability was calculated according to the equation: (OD of treated cells/ OD of untreated cells) × 100.

[3] = system: P. aeruginosa PAO1; experiment: Growth assay, standard plate counts; format: cell-based, Pseudomonas aeruginosa; details: 800 µM, 24 h; for effect on bacterial counts (growth): compared with untreated control, result in words
Procedure: The effects of BmKn‒2 peptide and its derivatives on growth of P. aeruginosa PAO1 were carried out as described previously with some modifications. Bacterial suspension (10^6 CFU/mL) and the test peptides (800 μM, final concentration) were incubated at 37 ^OC at 150 rpm. Bacterial culture without the test peptides was used as the untreated control. After 24 h, bacterial concentration was evaluated. Cultures from each treatment were taken and 10-fold serial dilution was performed; 100 μL of each dilution was then spread on LB agar plates. Following incubation at 37°C for 24 h, the colonies were counted and expressed as log10 CFU/mL.

[4] = system: sheep red blood cells; experiment: Hemolytic assay; format: cell-based; details: 800 µM, 37 °C, 1 h
Procedure: Hemolytic activity of the test peptides was assayed according to a protocol described previously. Suspension of 2% sheep red blood cells (100 μL) prepared in PBS pH 7.4 was incubated with 100 μL of the test peptides (800 μM, final concentration). After incubation at 37 ^OC for 1 h, the suspension was centrifuged at 1,000 g for 5 min followed by transferring 100 μL of the supernatant to 96 well-microtiter plate (Nunc). Released hemoglobin was then determined by measuring an absorbance at 405 nm using a microplate reader (BioTek Synergy HT). Positive and negative controls in this assay were 1% Triton X-100 and PBS pH 7.4, respectively. Hemolysis (%) was calculated using an equation: (OD405 nm peptide ‒ OD405 nm PBS pH 7.4)/(OD405 nm 1% Triton X-100 ‒ OD405 nm PBS pH 7.4) × 100.

[5] = system: P. aeruginosa PAO1 biofilms; experiment: Antibiofilm activity of BmKn-22 and azithromycin alone or in combination, crystal violet; format: cell-based, Pseudomonas aeruginosa
Procedure: as §1
Briefly, P. aeruginosa PAO1 suspension (10^6 CFU/mL, final concentration) was added to the wells of flat-bottomed 96-well microtiter plates (Nunc) containing the test peptide, azithromycin (AZM; Sigma) alone or in combinations. […] Biofilm formation was employed by measuring biofilm biomass stained with crystal violet as a protocol described in previous section.

[6] = system: P. aeruginosa PAO1; experiment: MIC, broth microdilution; format: cell-based, Pseudomonas aeruginosa; details: broth microdilution in LB broth, 10^6 CFU/mL, 37 °C, 24 h; printed only as half of the MIC
Procedure: MIC of azithromycin against P. aeruginosa was determined by using broth microdilution assay according to the protocol previously described with some modifications. Twofold serial dilutions of azithromycin (AZM; Sigma, St. Louis, USA) were prepared in LB broth in the wells of flat-bottomed 96-well microtiter plates (Nunc). Aliquots of P. aeruginosa PAO1 suspension at a final concentration of 10^6 CFU/mL was added to the wells of flat-bottomed 96-well microtiter plates (Nunc).

[7] = system: P. aeruginosa PAO1 established biofilms; experiment: Established (24 h-preformed) biofilm assay, crystal violet staining; format: cell-based, Pseudomonas aeruginosa
Procedure: Antibiofilm activity of the test peptides was also examined against established biofilms as follows. Aliquots of the P. aeruginosa PAO1 suspension adjusted to a final concentration of 10^6 CFU/mL were seeded into the wells of flat-bottomed 96-well microtiter plates (Nunc). Biofilms were established at 37°C for 24 h. After incubation, nonadherent planktonic cells were removed by gently washing the wells with sterile PBS pH 7.4. Preformed biofilms were then treated with the test peptides at concentrations of 200 ‒ 800 μM and incubated at 37°C for 24 h. Culture without the test peptides served as the untreated control. After the incubation, the test peptides were aspirated gently and the plates were rinsed twice with PBS pH 7.4. Biofilm biomass was subsequently quantified by 0.1% crystal violet staining as previously described.

[8] = 37 °C, 150 rpm, plate counts, untreated control 9.183, mean of 3 independent experiments
[9] = Exp. 1 (untreated control 9.082)
[10] = Exp. 2 (untreated control 9.198)
[11] = Exp. 3 (untreated control 9.268)

Compound	reduction of P. aeruginosa biofilms ([1]; 800 µM)	effect on viability of L929 cells [2]	Cell viability (%) ([2]; Exp. 1)	Cell viability (%) ([2]; Exp. 2)	Cell viability (%) ([2]; Exp. 3)	Bacterial growth, Log10 CFU/mL [3, 8]	effect on bacterial counts (growth) [3]	Bacterial growth, Log10 CFU/mL [3, 9]	Bacterial growth, Log10 CFU/mL [3, 10]	Bacterial growth, Log10 CFU/mL [3, 11]	lysis of red blood cells [4]	also measured
FIGAIARLL [BmKn-24]	less biofilm reduction activities	low effects on cell viability	84.274%	81.538%	83.751%	9.313 Log10 CFU/mL	no significant (P > 0.05) differences in bacterial counts	9.304 Log10 CFU/mL	9.273 Log10 CFU/mL	9.364 Log10 CFU/mL	less or no hemolysis	–
FIGAIARLLSKI [BmKn-21]	marked reduction	significant decrease (P < 0.001) in viability	1.974%	1.699%	1.835%	6.183 Log10 CFU/mL	reduction in bacterial counts	6.000 Log10 CFU/mL	6.314 Log10 CFU/mL	6.236 Log10 CFU/mL	–	–
CC[C@H]1OC(=O)[C@H](C)[C@@H](O[C@H]2C[C@@](C)(OC)[C@@H](O)[C@H](C)O2)[C@H](C)[C@@H](O[C@@H]2O[C@H](C)C[C@H](N(C)C)[C@H]2O)[C@](C)(O)C[C@@H](C)CN(C)[C@H](C)[C@@H](O)[C@]1(C)O [AZM, azithromycin, reference compound]	–	–	–	–	–	–	–	–	–	–	–	Biofilm biomass (% control) ([5]; azithromycin alone 64 µg/ml (1/2 MIC), 24 h, 37 °C, crystal violet, mean of 3 independent experiments): 100.000 % control; Biofilm biomass (% control) ([5]; azithromycin alone 64 µg/ml, Exp. 1): 100.000 % control; Biofilm biomass (% control) ([5]; azithromycin alone 64 µg/ml, Exp. 2): 100.000 % control; Biofilm biomass (% control) ([5]; azithromycin alone 64 µg/ml, Exp. 3): 100.000 % control; biofilm inhibition by azithromycin alone ([5]; sub-MIC dose (1/2 MIC, 64 µg/mL), result in words): significant biofilm inhibition was not evident; sub-MIC (1/2 of MIC) dose [6]: 64 µg/mL
FIGAIARLLSKIF [BmKn-2, reference compound]	marked reduction	significant decrease (P < 0.001) in viability	2.236%	2.027%	1.988%	6.872 Log10 CFU/mL	reduction in bacterial counts	6.755 Log10 CFU/mL	6.448 Log10 CFU/mL	7.411 Log10 CFU/mL	–	–
FIGAIAR [BmKn-26]	less biofilm reduction activities	low effects on cell viability	85.233%	87.113%	79.724%	9.247 Log10 CFU/mL	no significant (P > 0.05) differences in bacterial counts	9.213 Log10 CFU/mL	9.213 Log10 CFU/mL	9.314 Log10 CFU/mL	less or no hemolysis	–
FIGAIARLLS [BmKn-23]	marked reduction	low effects on cell viability	80.383%	84.400%	88.135%	9.429 Log10 CFU/mL	no significant (P > 0.05) differences in bacterial counts	9.488 Log10 CFU/mL	9.359 Log10 CFU/mL	9.440 Log10 CFU/mL	less or no hemolysis	Biofilm inhibition (%), biofilm formation ([1]; 200 µM, Exp. 1): 28.654%; Biofilm inhibition (%), biofilm formation ([1]; 200 µM, Exp. 2): 28.944%; Biofilm inhibition (%), biofilm formation ([1]; 200 µM, Exp. 3): 40.209%; Biofilm inhibition (%), biofilm formation ([1]; 400 µM, Exp. 1): 34.053%; Biofilm inhibition (%), biofilm formation ([1]; 400 µM, Exp. 2): 36.612%; Biofilm inhibition (%), biofilm formation ([1]; 400 µM, Exp. 3): 46.402%; Biofilm inhibition (%), biofilm formation ([1]; 800 µM, Exp. 1): 44.669%; Biofilm inhibition (%), biofilm formation ([1]; 800 µM, Exp. 2): 49.083%; Biofilm inhibition (%), biofilm formation ([1]; 800 µM, Exp. 3): 70.992%; Biofilm inhibition (%), preformed biofilm ([7]; 200 µM, Exp. 1): 0.000%; Biofilm inhibition (%), preformed biofilm ([7]; 200 µM, Exp. 2): 3.802%; Biofilm inhibition (%), preformed biofilm ([7]; 200 µM, Exp. 3): 6.512%; Biofilm inhibition (%), preformed biofilm ([7]; 400 µM, Exp. 1): 12.191%; Biofilm inhibition (%), preformed biofilm ([7]; 400 µM, Exp. 2): 4.570%; Biofilm inhibition (%), preformed biofilm ([7]; 400 µM, Exp. 3): 0.000%; Biofilm inhibition (%), preformed biofilm ([7]; 800 µM, Exp. 1): 3.155%; Biofilm inhibition (%), preformed biofilm ([7]; 800 µM, Exp. 2): 0.000%; Biofilm inhibition (%), preformed biofilm ([7]; 800 µM, Exp. 3): 8.639%; % inhibition of 24 h-preformed P. aeruginosa biofilms ([7]; range over 200 - 800 µM, 24 h treatment): No eradication activity
FIGAIARL [BmKn-25]	less biofilm reduction activities	low effects on cell viability	82.909%	93.165%	83.012%	9.293 Log10 CFU/mL	no significant (P > 0.05) differences in bacterial counts	9.255 Log10 CFU/mL	9.288 Log10 CFU/mL	9.335 Log10 CFU/mL	less or no hemolysis	–
